Results taken from patent publication US20030134901A1, “Lipoxin compounds and their use in treating cell proliferative disorders” (priority 1993, published 2003).

Experiments:
[1] = system: A549 cells; experiment: A549 cell proliferation, MTT assay; type: cell-based, human; settings: Homo sapiens, A549
Description: A microculture 3,(4,5-dimethylthiazoyl-2-yl) 2,5 (diphenyl-tetrazolium bromide) (MTT) assay, (Marshall, N. J., et al. (1995) A critical assessment of the use of microculture tetrazolium assays to measure cell growth and function. Growth Regul. 5: 69-84.), was used to examine the actions of LXs and other eicosanoids on cell proliferation. A549 cells and fibroblasts from exponential-phase maintenance cultures were counted and dispensed within replicate 96-well culture plates in 100 μl volumes of medium (˜2000 cells/well). Following 24 hours at 37° C., the culture medium was removed, and fresh medium (100 μl) containing either the compounds (5-1000 nM) or vehicle (medium plus 0.15% ethanol) was added to 4 replicates for each condition studied and the culture plates were then incubated for up to 96 hours at 37° C. in a 5% CO2 atmosphere. At the end of this period, 25 μl of freshly prepared MTT in HBSS (5 mg/ml) was added to the wells and the plates were incubated for 4 hours at 37° C. Dye solution was aspirated, wells were washed once with HBSS and dye taken up by the cells was extracted in 100 μl of isopropyl alcohol:1 N HCl (96:4, v/v) and quantitated at 570 nm using a microplate reader (Molecular Devices, Menlo Park, Calif.). In some experiments, cells were grown in 12-well culture plates, treated as above and enumerated using a Neubauer hemocytometer. Viability was assessed routinely using trypan blue exclusion assay. For the A549 cells and fibroblasts, a linear relation was established for the MTT values and cell number within the range of the experiments shown (r=0.995, P<0.005). A549 cells grown for 72 hours in the presence of the compounds (5-1000 nM) or vehicle (0.15% EtOH) were lysed with 0.25 N NaOH and the cellular protein content was determined by applying the Bio-Rad (Richmond, Calif.) microassay method using bovine serum albumin as standard. The mean cellular protein content in resting A549 cells was 46.6±1.5 pg/cell.

[2] = system: human skin fibroblasts; experiment: Fibroblast proliferation, MTT assay; type: cell-based; settings: Homo sapiens, Skin fibroblast; 100 nM, n=3
Text: Human type II epithelial A549 cells from human lung carcinoma and normal human skin fibroblast (breast) were obtained from the American Type Culture Collection (Rockville, Md.). The A549 cell line originated from a human alveolar cell carcinoma and was a useful cell line because it was easily assessable and could be maintained in culture without contaminating tissue macrophages. (Lieber, M., et al (1976) A continuous tumor-cell line from a human lung carcinoma with properties of type II alveolar epithelial cells. Int. J Cancer Fibroblasts were utilized within their limited window of viability and their passage numbers were recorded (results are reported for cells from 3-5 passages). Epithelial A549 cells were seeded into T-75 cm^2 tissue culture flasks and maintained in F-12K medium supplemented with 10% heat-inactivated FBS, penicillin (50 U/mL) and streptomycin (50 (g/mL). Human PMN from healthy donors who had not taken ASA or other medications for at least two weeks were obtained by Ficoll-Hypaque gradient centrifugation and dextran sedimentation, (Böyum A. (1968) Isolation of mononuclear cells and granulocytes from human blood. […] Viability of A549 cells and PMN was determined by their ability to exclude trypan blue and were 95±2 and 97±1%, respectively.
A microculture 3,(4,5-dimethylthiazoyl-2-yl) 2,5 (diphenyl-tetrazolium bromide) (MTT) assay, (Marshall, N. J., et al. (1995) A critical assessment of the use of microculture tetrazolium assays to measure cell growth and function. Growth Regul. 5: 69-84.), was used to examine the actions of LXs and other eicosanoids on cell proliferation. A549 cells and fibroblasts from exponential-phase maintenance cultures were counted and dispensed within replicate 96-well culture plates in 100 μl volumes of medium (˜2000 cells/well). […] Dye solution was aspirated, wells were washed once with HBSS and dye taken up by the cells was extracted in 100 μl of isopropyl alcohol:1 N HCl (96:4, v/v) and quantitated at 570 nm using a microplate reader (Molecular Devices, Menlo Park, Calif.). […]

[3] = system: PLD activity in differentiated HL-60 cells; experiment: PLD activity (PEt formation) in differentiated HL-60 cells; type: cell-based, human; settings: HL-60 cells; IAP (300 ng/ml) at LXA4 10^−9-10^−10 M, staurosporine (100 nM) at LXA4 10^−7 M
Description: Cell cultures and differentiation. HL-60 cells were seeded in RPMI medium supplemented with 100 U/ml penicillin, 100 μg/ml streptomycin, and 10% fetal calf serum (Hyclone, Logan, Utah), incubated at 37° C. with 5% CO2 atmosphere in 250 ml flasks. Individual flasks containing ˜[…] next received dimethyl sulfoxide (DMSO) (1.12% v/v, 120 h) or retinoic acid (RA) (1 μM, 120 h) or phorbol myristate acetate (PMA) (20 nM, 48 h). Before performing binding assays, cells were washed twice in phosphate buffered saline (PBS), Ca^2+- and Mg^2+-free, enumerated and suspended at 20×10^6 cells/ml in Tris buffer (10 mM), pH 7.4 (Fiore, S. et al.(1992) J. Biol. Chem. 267:16168). Nitro blue tetrazolium reduction was performed to monitor induction of polymorphonuclear phenotype as in (Imaizumi, M. and Breitman, T. R. (1986) Blood 67:1273), and cell adherence was determined for induction of macrophage-like phenotype (Collins, S. J. (1987) Blood 70:1273). Human umbilical vein endothelial cells (HUVEC) maintained in culture third passage were obtained from Dr. M. Gimbrone (Brigham and Women's Hospital Department of Pathology).
PLD activity. Human PMN and HL-60 cells (50×10^6 cells/ml) prepared as above were incubated with ^3H-myristic acid or ^3H-palmitic acid (8 μCi/50×10^6 cells) for 40-60 min at 37° C. in PBS. Cell uptake ranged between 60-80% of added label, 7.1±4.2% (n=10; mean ±S.D.) and 32.6±10.3% (n=6; mean ±S.D.) into total phospholipid classes of PMN and HL-60 cells, respectively. Incubations were carried out at 37° C. (10 ×10^6 cells/ml PBS). […] At indicated times, incubations were stopped by adding 3.5 ml of ice cold CHCl3/MeOH (2/5, v/v) containing 1-^14C-arachidonic acid (5,000 cpm) used here as internal standard to quantitate extraction recoveries. […] Regions corresponding to PA, PEt, and internal standards were scraped and quantified by liquid scintillation counting. […] All values reported for PEt formation in Tables 4 and 5 were calculated by subtracting the dpm obtained in the presence of […]. […]

[4] = system: PLD activity in human PMN; experiment: PLD activity (PEt formation) in PMN; type: cell-based; settings: PMN; IAP at LXA4 10^−9-10^−10 M, staurosporine (100 nM) at LXA4 10^−7 M
Description: PMN, platelet and RBC isolation from peripheral blood. Human PMN were obtained by the modified Böyum method (Böyum, A. (1968) Scan. J. Clin. Lab. Invest. 21:77) from fresh heparinized blood after venipuncture of healthy normal volunteers. Suspensions in PBS were monitored for cell number and viability by their ability to exclude trypan blue both exceeding 98%. Red blood cells were obtained from 10 ml of heparinized blood after three centrifugations in PBS (2,500 rpm, 10 min at 21° C.). Blood drawn in acidic citrate dextrose (9:1, v/v) was used to isolate platelets as previously described (Serhan, C. N. and Sheppard, K.-A. (1990) J. Clin. Invest. 85:772). PLD activity. Human PMN and HL-60 cells (50×10^6 cells/ml) prepared as above were incubated with ^3H-myristic acid or ^3H-palmitic acid (8 μCi/50×10^6 cells) for 40-60 min at 37° C. in PBS. […] Incubations were carried out at 37° C. (10 ×10^6 cells/ml PBS). […] M. et al. (1989) J. Biol. Chem. 264:17069. At indicated times, incubations were stopped by adding 3.5 ml of ice cold CHCl3/MeOH (2/5, v/v) containing 1-^14C-arachidonic acid (5,000 cpm) used here as internal standard to quantitate extraction recoveries. Samples were extracted using a modified Bligh and Dyer extraction as in (Serhan, C. N. and Sheppard, K. -A. (1990) J. Clin. Invest. 85:772). Organic phases, concentrated in 50 μL of CHCl3/MeOH (8/2, v/v), were spotted onto linear […] TLC plates developed with the organic phase of ethyl acetate[…][…] (110/50/20/100, v/v/v/v) for 50 min ([…]. et al.(1989) J. Biol. Chem. 264:17069). […] Regions corresponding to PA, PEt, and internal standards were scraped and quantified by liquid scintillation counting. […] In these experiments, PA was resolved using ethyl acetate[…][…]) as solvent system ([…]. et al. (1989) Anal. […] Impact of IAP and staurosporine on LXA4-induced PLD activity. PLD activity assays, performed as described (vide supra), were preceded by cell exposure to either IAP or staurosporine. […]

IC50 ([1]; MTT assay, 72 hours, read-out: half maximum inhibition (IC50) of A549 cell proliferation) [nM]	Compound	inhibition at 0.1 µM ([1]; 10^−7 M, 72 hours at 37° C., mean ± SEM, 3 to 7 experiments) [%]	inhibition at 0.1 µM [2] [%]	effect on LXA4-mediated PLD activity [3]	effect on LXA4-mediated PLD activity [4]
~7	C[C@@H]1C[C@H]2[C@@H]3CCC4=CC(=O)C=C[C@]4(C)[C@@]3(F)[C@@H](O)C[C@]2(C)[C@@]1(O)C(=O)CO [Dexamethasone]	42.1 ± 5.4	29.7		
	CN[C@@H]1C[C@H]2O[C@@](C)([C@@H]1OC)n1c3ccccc3c3c4c(c5c6ccccc6n2c5c31)C(=O)NC4 [staurosporine]			inhibited by staurosporine	inhibited by staurosporine
	IAP: Islet activating protein			sensitive to IAP treatment	sensitive to IAP treatment
